Assay results published in US5138059A, “DC-89 compounds and process for their preparation” (priority 1988, dated 1992).
Values after ≈ are worked out from the molar mass of the structure shown.

Tests used:
[1] = system: lymphocytic leukemia P388; test: Therapeutical effect against lymphocytic leukemia P388; format: in vivo, male CDF1 mice
Experimental: Five male CDF1 mice each weighing about 22 g were used for each group, and 1×10^6 cells of lymphocytic leukemia P388 tumor cells were implanted intraperitoneally into the mice. Twenty-four hours after the implantation, 0.2 ml of PBS containing the DC-89 compound was intraperitoneally administered once. For comparison, 0.2 ml of PBS containing mitomycin C was intraperitoneally administered 24 hours after implantation of the tumor cells. The increased life span (T/C) [T: mean survival time (days) of the test groups, C: mean survival time (days) of the control group which received an intraperitoneal administration of 0.2 ml of PBS] after the implantation is shown in Table 4.

Sarcoma 180 solid tumor = test: Therapeutical effect against Sarcoma 180 solid tumor; format: in vivo, ddY male mice; settings: 10 days after implantation
Experimental: Six ddY male mice each weighing about 20 g were used for each group, and 5×10^6 Sarcoma 180 solid tumor cells were implanted subcutaneously into the mice at the axilla. Twenty-four hours after the implantation, 0.2 ml of a phosphate buffer saline (hereinafter referred to as PBS) containing the DC-89 compound in the concentration shown in Table 3 was intraperitoneally administered once.
The composition of PBS was 0.8 g/dl NaCl, 0.02 g/dl KCl, […] Na2 HPO4 and 0.02 g/dl KH2 PO4 (pH 7.2).
For comparison, 0.2 ml of PBS containing mitomycin C was intraperitoneally administered 24 hours after implantation of the tumor cells.
Ten days after the implantation, T/C [T: average tumor volume (mm^3) of the test groups, C: average tumor volume (mm^3) of the control group which received an intraperitoneal administration of 0.2 ml of PBS] was determined.

Solubility = format: physicochemical
[2] = system: Klebsiella pneumoniae ATCC 10031; test: Antibacterial activity, agar dilution method (MIC); format: cell-based; settings: ATCC10031; Klebsiella pneumoniae ATCC 10031, agar dilution, pH 7; read-out: Minimum inhibitory concentration (MIC)
Experimental: (§1) The antibacterial activity was determined by the agar dilution method using a medium (pH 7) prepared by dissolving 3 g of Bacto-tryptone (Difco Laboratories), 3 g of meat extract, 1 g of yeast extract, 1 g of glucose and 16 g of agar in 1 liter of water.

[3] = system: Bacillus subtilis No. 10707; test: Antibacterial activity, agar dilution method (MIC); format: cell-based; settings: Bacillus subtilis No. 10707, agar dilution, pH 7; read-out: Minimum inhibitory concentration (MIC)
Experimental: as §1

[4] = system: Staphylococcus aureus ATCC 6538P; test: Antibacterial activity, agar dilution method (MIC); format: cell-based; settings: ATCC6538P, pH 7, read-out: Minimum inhibitory concentration (MIC)
Experimental: as §1

Escherichia coli ATCC 26 = test: Antibacterial activity, agar dilution method (MIC); format: cell-based; settings: ATCC26; Escherichia coli ATCC 26, agar dilution, pH 7; read-out: Minimum inhibitory concentration (MIC)
Experimental: as §1

[5] = system: Salmonella typhi ATCC 9992; test: Antibacterial activity, agar dilution method (MIC); format: cell-based; settings: Salmonella enterica; Salmonella typhi ATCC 9992, agar dilution, pH 7; read-out: Minimum inhibitory concentration (MIC)
Experimental: as §1

[6] = Acute toxicity (LD50), intraperitoneal, mice; settings: mouse, in vivo, ip
[7] = in methanol, ethanol, ethyl acetate, acetone, chloroform and dimethylsulfoxide
[8] = 4 mg/kg, i.p. 24 h after implantation

| Compound | Increased Life Span (T/C) (mean survival time) ([1]; 0.125 mg/kg, i.p. once 24 h after implantation) | T/C (average tumor volume) (Sarcoma 180 solid tumor; 3 mg/kg, i.p. once 24 h after implantation) | Solubility (Solubility; [7]) | Solubility (Solubility; in water and n-hexane) | MIC [2] [µg/mL] | MIC [3] [µg/mL] | MIC [4] [µg/mL] | MIC (Escherichia coli ATCC 26) [µg/mL] | MIC [5] [µg/mL] | LD50 [6] [mg/kg] | Increased Life Span (T/C) (mean survival time) ([1]; 0.0156 mg/kg, i.p. once 24 h after implantation) | T/C (average tumor volume) (Sarcoma 180 solid tumor; 0.5 mg/kg, i.p. once 24 h after implantation) | Increased Life Span (T/C) (mean survival time) ([1]; 0.0781 mg/kg, i.p. once 24 h after implantation) | T/C (average tumor volume) (Sarcoma 180 solid tumor; 0.25 mg/kg, i.p. once 24 h after implantation) | Increased Life Span (T/C) (mean survival time) [1, 8] | T/C (average tumor volume) (Sarcoma 180 solid tumor; [8]) |
| --- | --- | --- | --- | --- | --- | --- | --- | --- | --- | --- | --- | --- | --- | --- | --- | --- |
| COC(=O)C1(C)Nc2c(O)cc3c(c2C1=O)C(CCl)CN3C(=O)c1cc2cc(OC)c(OC)c(OC)c2[nH]1 (centres unmarked) [DC-89A2] | 1.35 | 0.19 | readily soluble | sparingly soluble | 0.42 (≈ 0.772 µM) | 0.0065 (≈ 0.0119 µM) | 0.052 (≈ 0.0956 µM) | 5.2 (≈ 9.56 µM) | 10.4 (≈ 19.1 µM) | ~3.83 |  |  |  |  |  |  |
| COC(=O)C1(C)Nc2c(O)cc3c(c2C1=O)CC(Br)CN3C(=O)c1cc2cc(OC)c(OC)c(OC)c2[nH]1 (centres unmarked) [DC-89B1] |  |  | readily soluble | sparingly soluble | 0.026 (≈ 0.0442 µM) | 0.013 (≈ 0.0221 µM) | 0.0008 (≈ 0.00136 µM) | 0.33 (≈ 0.561 µM) | 1.3 (≈ 2.21 µM) | ~0.37 | 1.35 | 0.22 |  |  |  |  |
| COC(=O)C1(C)Nc2c(O)cc3c(c2C1=O)C(CBr)CN3C(=O)c1cc2cc(OC)c(OC)c(OC)c2[nH]1 (centres unmarked) [DC-89B2] |  |  | readily soluble | sparingly soluble | 0.1 (≈ 0.17 µM) | 0.0033 (≈ 0.00561 µM) | 0.0033 (≈ 0.00561 µM) | 1.3 (≈ 2.21 µM) | 2.6 (≈ 4.42 µM) | ~0.28 |  |  | 1.19 | 0.28 |  |  |
| CO[C@@]12[C@H](COC(N)=O)C3=C(C(=O)C(C)=C(N)C3=O)N1C[C@@H]1N[C@@H]12 [Mitomycin C, mitomycin C, reference compound] |  |  |  |  |  |  |  |  |  |  |  |  |  |  | 1.66 | 0.30 |
